Measured values from patent US11246871B2, “Targeting adenosine A2A receptors for the treatment of levodopa-induced dyskinesias” (Northwestern University, priority 2016, dated 2022).
“Also recorded” adds a separate entry of the source.

Legend:
dSPNs = assay: Patch-clamp recording of LTP induction in striatal slices from 6-OHDA lesioned animals; set-up: species or system Mouse; details: shortly after the last injection of L-DOPA (ON-state)
Experimental: (§1) Mice were deeply anesthetized intraperitoneally with a mixture of ketamine and xylazine. Parasagittal slices were cut in ice-cold aCSF. Whole-cell and perforated-patch recordings were performed in the dorsolateral striatum at 30-31° C. […] These protocols consisted of 20-60 trains of five bursts repeated at 0.1 Hz, with each burst composed of three APs preceded with three EPSPs at 50 Hz (pre-post timing pairing, +5 ms) or three APs followed by one EPSP (post-pre timing pairing, −10 ms). To ensure induction of consistent synaptic plasticity, postsynaptic neurons were depolarized to −70 mV from their typical resting membrane potentials (−85 mV) during their induction. GABAA was blocked by the bath application of gabazine (10 μM).
(§2) Data analysis was conducted with Igor Pro 6 and Clampfit 9. EPSP amplitude was calculated from 50 sweeps immediately before the start of induction and 20-30 min after the end of induction. Compiled data were expressed as mean±SEM. Statistical tests were performed using Excel and SigmaStat. Nonparametric Mann-Whitney or Wilcoxon tests were used to assess the experiment results, using a probability threshold of 0.05. Statistical analyses for behavioral data were carried out using Prism 6. Data were analyzed using parametric repeated measure two-way ANOVA followed by post hoc Bonferroni's test.

iSPNs = assay: Patch-clamp recording of LTD induction in striatal slices from 6-OHDA lesioned animals; set-up: species or system Mouse; details: dyskinetic ON-state after L-DOPA
Experimental: as §1, §2

[1] = system: unilateral 6-OHDA lesioned mice (L-DOPA-induced dyskinesia); assay: Mouse unilateral 6-OHDA model and LID, abnormal involuntary movements (AIMs) scoring; format: in vivo
Experimental: Mouse Unilateral 6-Hydroxydopamine (6-OHDA) Model and LID
Mice were anaesthetized with an isoflurane precision vaporizer, placed in a stereotaxic frame, and a hole was drilled over the medial forebrain bundle. After exposing the skull, 3.5 mg ml^−1 free base 6-OHDA with 0.02% ascorbic acid was injected using a glass micropipette. Three weeks after surgery, the degree of damage to nigrostriatal DA neurons was assessed with a forelimb-use asymmetry test. Striatal sections from a subset of mice were stained with tyrosine hydroxylase to verify successful lesion. One day after the test, mice underwent behavioral testing for abnormal involuntary movements (AIMs) following L-DOPA treatment. Treatment with L-DOPA was given daily for 15 days at the doses of 3 mg kg^−1. Animals were randomly allocated to receive treatment with L-DOPA and vehicle, or L-DOPA and an A2a receptor antagonist.
as §2, with “Nonparametric Mann-Whitney or Wilcoxon tests were used to assess the experiment results, using a probability threshold of 0.05. Statistical analyses for behavioral data were carried out using Prism 6.” left out

Structure (SMILES) | LTP induction in dSPNs (dSPNs) | LTD induction in iSPNs (iSPNs) | development of LID behaviors ([1]; systemic tozadenant 30 mg/kg 5 hours after L-DOPA doses, L-DOPA 3 mg/kg daily for 15 days, vs L-DOPA+vehicle, p<0.05) | LID scores induced by subsequent doses of L-DOPA (ON-state) ([1]; treated in the LID OFF-state)
N[C@@H](Cc1ccc(O)c(O)c1)C(=O)O [L-DOPA, L-3,4-dihydroxyphenylalanine] | LTP was recovered in dSPNs; also recorded: restores LTP in dSPNs | LTD was recovered; also recorded: LTD in iSPNs | – | –
COc1ccc(N2CCOCC2)c2sc(NC(=O)N3CCC(C)(O)CC3)nc12 [tozadenant] | – | – | reduces the development of LID behaviors | significantly attenuates LID scores
